ChEMBL document CHEMBL3244364, “5,11-dimethyl-2,9-bis(phenylacetyl)-5,11-diazatetracyclo[6.2.2.0(2,7).0(4,9)]dodecane, a potent, novel analgesic” (J Med Chem, 1977)
Active and inactive are the calls of the source.

Key:
Rattus norvegicus [1] = test: Analgesic activity in sc dosed rat assessed as estimated dose to elevate pain reaction threshold to pressure applied to hind paw of to 50 mmHg; type: functional
Rattus norvegicus [2] = test: Analgesic activity in rat assessed as elevate pain reaction threshold to pressure applied to hind paw of to 50 mmHg at 10 mg/kg, iv; type: functional, organism-based; set-up: dose 10 mg/kg
Rattus norvegicus [3] = test: Analgesic activity in rat assessed as elevate pain reaction threshold to pressure applied to hind paw of to 50 mmHg at 5 mg/kg, iv; type: functional, organism-based; set-up: dose 5 mg/kg
Rattus norvegicus [4] = species: Rattus norvegicus; test: Toxicity in rat assessed as catatonia; type: organism-based; details: in vivo
Rattus norvegicus [5] = species: Rattus norvegicus; test: Toxicity in rat assessed as exopthalmus; type: organism-based; details: in vivo
Rattus norvegicus [6] = species: Rattus norvegicus; test: Toxicity in rat assessed as straub tail; type: organism-based; details: in vivo
Rattus norvegicus [7] = test: Ratio of morphine ED50 to compound ED50 for analgesic activity in sc dosed rat; type: functional
Rattus norvegicus [8] = test: Analgesic activity in rat assessed as ability to prolong reaction time at 3 mg/kg, sc by tail-flick assay; type: functional, organism-based; set-up: dose 3 mg/kg
Rattus norvegicus [9] = test: Analgesic activity in rat assessed as elevate pain reaction threshold to pressure applied to hind paw of to 50 mmHg at 50 mg/kg, sc; type: functional, organism-based; set-up: dose 50 mg/kg
Rattus norvegicus [10] = test: Analgesic activity in rat assessed as ability to prolong reaction time at 3 mg/kg, sc by tail-flick assay in presence of 10 mg/kg, sc naloxone; type: functional, organism-based
[11] = Rattus norvegicus, sc, read-out: ED50

Work on `CN1CC2C3CN(C)C4CC3(C(=O)Cc3ccccc3)C1CC24C(=O)CC1CCCCC1` (configuration not stated) yielded an ED50 (Rattus norvegicus [1]; [11]) of 10.1 mg/kg.

With `O=C(Cc1ccccc1)C12CC3NCC1C1CNC2CC31C(=O)Cc1ccccc1` the ED50 (Rattus norvegicus [1]; [11]) was > 81 mg/kg.

`CN1CC2C3CNC4CC3(C(=O)Cc3ccccc3)C1CC42C(=O)Cc1ccccc1` (configuration not stated) was tested, and the ED50 (Rattus norvegicus [1]; [11]) was 45 mg/kg.

`CCN1CC2C3CN(CC)C4CC3(C(=O)Cc3ccccc3)C1CC24C(=O)Cc1ccccc1` showed an ED50 (Rattus norvegicus [1]; [11]) of 41.1 mg/kg.

For `C=CCN1CC2C3CN(CC=C)C4CC3(C(=O)Cc3ccccc3)C1CC24C(=O)Cc1ccccc1`, the ED50 (Rattus norvegicus [1]; [11]) was > 81 mg/kg.

`CCN1CC2C3CN(C)C4CC3(C(=O)Cc3ccccc3)C1CC24C(=O)Cc1ccccc1` (configuration not stated) showed an ED50 (Rattus norvegicus [1]; [11]) of 29.9 mg/kg.

In the case of `C=CCN1CC2C3CN(C)C4CC3(C(=O)Cc3ccccc3)C1CC24C(=O)Cc1ccccc1` (configuration not stated), the Activity (Rattus norvegicus [2]) is reported as “inactive” and the ED50 (Rattus norvegicus [1]; [11]) is reported as > 80 mg/kg.

In the case of `CN1CC2C3CN(C)C4CC3(C(=O)CC3CCCCC3)C1CC24C(=O)CC1CCCCC1`, the ED50 (Rattus norvegicus [1]; [11]) is reported as > 81 mg/kg.

`CC(C)=CCN1CC[C@]2(C)c3cc(O)ccc3C[C@H]1[C@H]2C` was tested, and the Activity (Rattus norvegicus [3]) was “Active”.

`CN1CC2C3CN(C)C4CC3(C(=O)Cc3ccccc3)C1CC24C(=O)Cc1ccccc1` (racemic) [listing 1 of 2 here] was tested, and the Activity (Rattus norvegicus [4]) was “Toxic”, the Activity (Rattus norvegicus [5]) was “Toxic” and the Activity (Rattus norvegicus [6]) was “Toxic”. For the same compound, the “Ratio ED50” value (Rattus norvegicus [7]) was 1.5 and the ED50 (Rattus norvegicus [1]) was 1 mg/kg.

For `CN1CC2C3CN(C)C4CC3(C(=O)Cc3ccccc3)C1CC24C(=O)Cc1ccccc1` (racemic) [listing 2 of 2 here], the Activity (Rattus norvegicus [8]) was “Active”, the Activity (Rattus norvegicus [9]) was “Active” and the Activity (Rattus norvegicus [10]) was “inactive”.

`CN1CC2C3CN(C)C4CC3(C(=O)Cc3ccccc3)C1CC24C(=O)Cc1ccccc1` (single isomer, unassigned; (+)) was tested, and the ED50 (Rattus norvegicus [1]) was >80 mg/kg.

In the case of `CN1CC2C3CN(C)C4CC3(C(=O)Cc3ccccc3)C1CC24C(=O)Cc1ccccc1` (single isomer, unassigned; (-)), the “Ratio ED50” value (Rattus norvegicus [7]) is reported as 3 and the ED50 (Rattus norvegicus [1]) is reported as 0.6 mg/kg.

Compound `CN1CC[C@]23c4c5ccc(O)c4O[C@H]2[C@@H](O)C=C[C@H]3[C@H]1C5` [MORPHINE] has an ED50 (Rattus norvegicus [1]; [11]) of 1.5 mg/kg.
